Source: publication PMC2408963, “A Detailed Analysis of the Murine TAP Transporter Substrate Specificity” (PLoS ONE, 2008)
Where no end group is shown, it is not given here.

What was measured:
human TAP complexes = assay: Fluorescence polarization assay with insect cell-expressed human TAP; type: binding
[1] = system: murine TAP1 or TAP2 protein alone
Source text: Using the same insect cell system for TAP expression, a novel assay was established which is based on detecting fluorescence polarization rather than the activity of a radioactive tracer. […] To establish a fluorescence polarization assay, we determined the concentrations of reporter peptide and microsomes yielding the highest specific binding signal (mP reading).

R9L-FITC: reporter peptide in which position 6 (Ser) of R9L was substituted by a Cys residue coupled to a fluorescein group (RRYNAC(fluorescein)TEL)
affinity for human TAP compared with murine TAP (human TAP complexes): identical affinity
binding to microsomes containing either murine TAP1 or TAP2 protein alone [1]: did not bind
